Measured values: patent publication US20150306178A1, “METHODS AND COMPOSITIONS FOR TREATING AND PREVENTING TINNITUS” (Auris Medical AG, priority 2014, published 2015)
Values joined by “and” are separate entries in the source; they are usually repeats but may differ in a detail not shown here. Identical values can stand only once. Where no end group is shown, it is not given here. [ ]: non-standard residue; d: D form.

Experiments:
[1] = system: models of cochlear insult; conditions: acute noise trauma, acute labyrinthitis, aminoglycoside ototoxicity, bacterial infection, cochlear ischemia, cochlear implantation trauma; cited from earlier work
[2] = system: ASNHL-related tinnitus; test: Double-blind, randomized, placebo-controlled phase II study of AM-111 in ASNHL and associated tinnitus; format: in vivo, human; conditions: for Number of Subjects with Tinnitus/Number of Subjects with Observation (%): Safety Population; for Complete ASNHL-Related Tinnitus Remission in the Treated Ear, Frequency (%): time point Overall, mITT
Protocol: A double-blind, randomized, placebo-controlled phase II study was conducted to evaluate the efficacy and safety of AM-111 in treating ASNHL and associated tinnitus. Eligible participants were aged 18 to 60 years and suffered from ASNHL (unilateral idiopathic sudden sensorineural hearing loss (ISSNHL), uni- or bilateral acute acoustic trauma (AAT)) with hearing loss of at least 30 dB and onset not more than 48 hours previously. The hearing loss was determined against a reference value: mean hearing threshold at the 3 most affected contiguous test frequencies (pure tone average, PTA) less corresponding mean hearing threshold of the contralateral ear (Plontke et al., 2007). In case of previously asymmetric hearing or bilateral ASNHL, thresholds from a previous audiogram or ISO-7029; 2000 norm values served as reference. The PTA frequencies determined at baseline remained fixed for all evaluations.
Exclusion criteria included history of Meniere's disease, autoimmune or radiation induced hearing […] loss, endolymphatic hydrops or fluctuating hearing loss, suspected perilymph fistula, membrane rupture or retrocochlear lesion, barotrauma, air-bone gap >20 dB in 3 contiguous frequencies, previous ASNHL incident within the past 6 weeks, and acute or chronic otitis media or otitis externa. Women who were breast feeding, pregnant or who planned a pregnancy during the study, or women of childbearing potential who declared being unwilling or unable to practice an effective method of […] contraception were excluded. Written informed consent was obtained from each patient prior to the performance of any study-specific procedures.
At baseline (Day 0), study participants were randomized to receive AM-111 (0.4 or 2.0 mg/mL) or placebo at a 2:1 ratio. The study consisted of a baseline assessment and 4 follow-up visits on Days 3, 7, 30, and 90. Baseline assessments included a general physical examination, vital signs, and a urine pregnancy test for women of childbearing age. At each study visit pure tone hearing thresholds, speech discrimination at 60 and 80 dB, and subjective tinnitus loudness were determined. Those patients reporting tinnitus were asked to rate its loudness “right now” on a numerical scale ranging from 0 (no tinnitus) to 10 (extremely loud).
Approximately 0.25 mL of the study drug was administered on Day 0 by intratympanic (i.t.) injection under local anesthesia through a small myringotomy with the patient's head placed in a position tilted 45° towards the unaffected ear. Patients remained in their reclined or supine position for approximately 30 minutes to allow for diffusion of the active substance into the cochlea. In case of bilateral AAT, only the worst affected ear was treated. Subjects whose PTA recovered <10 dB from baseline to Day 7 were given the option to receive oral prednisolone 50 mg (Ratiopharm, Ulm, Germany) b.i.d. for 5 days.
The sample size was determined based on an expected effect size of 0.6, a two-sided type I error rate of 5% and a statistical power of 80%.
Efficacy analyses were primarily performed on a modified “Intention to treat” (mITT) analysis set (treated patients with PTA measured on Day 3±1 or Day 7+4 days at most) and secondarily on the “Per Protocol” (PP) analysis set. The “Safety Population” analysis set included all patients who received an injection of the study medication. Random imputation was performed for missing PTA values at Days 7 and 30, and missing speech discrimination score (SDS) values at Day 7 based on the preceding value and the mean change observed in the respective treatment group (mITT set).
For continuous efficacy endpoints, analysis of covariance (ANCOVA) models were used including treatment group and initial frequency range as class effects, and baseline values of the respective endpoint as covariate. For the complete recovery rate, a logistic regression model was applied including treatment, initial frequency range, and baseline hearing loss as predictor variables. […]

[3] = system: c-Jun/JNK complex; conditions: in vitro and in intact cells; Holzberg et al. 2003; cited from earlier work

In the case of “AM-111: 31-amino acid cell-permeable peptide (SEQ ID NO: 2, all-D), islet-brain 1 effector domain fused to TAT, formulated in a biocompatible hyaluronic acid gel ([dD][dQ][dS][dR][dP][dV][dQ][dP][dF][dL][dN][dL][dT][dT][dP][dR][dK][dP][dR][dP][dP][dR][dR][dR][dQ][dR][dR][dK][dK][dR]G)”, the “Otoprotection in models of cochlear insult” value [1] is listed as “otoprotective”, the “Number of Subjects with Tinnitus/Number of Subjects with Observation (%)” value (from here on “Number of Subjects with Tinnitus/Number … (%)”) ([2]; AM-111 0.4 mg/mL single i.t. injection, Day 0, after study drug, 53/56 subjects with ASNHL-related tinnitus) is listed as 53/56 (94.6) % and the “Number of Subjects with Tinnitus/Number … (%)” value ([2]; AM-111 0.4 mg/mL single i.t. injection, Day 3, 51/56 subjects) is listed as 51/56 (91.1) %. For the same substance, the “Number of Subjects with Tinnitus/Number … (%)” value ([2]; AM-111 0.4 mg/mL single i.t. injection, Day 7, 42/55 subjects) was 42/55 (76.4) %, the “Number of Subjects with Tinnitus/Number … (%)” value ([2]; AM-111 0.4 mg/mL single i.t. injection, Day 30, 26/55 subjects) was 26/55 (47.3) % and the “Number of Subjects with Tinnitus/Number … (%)” value ([2]; AM-111 0.4 mg/mL single i.t. injection, Day 90, 19/50 subjects, placebo 56.0%) was 38.0% and 19/50 (38.0) %. The “Complete ASNHL-Related Tinnitus Remission in the Treated Ear, Frequency (%)” value (“Complete ASNHL-Related Tinnitus Remission … (%)” below) ([2]; AM-111 0.4 mg/mL, All Subjects N = 50 (35 subjects), placebo 54.9%, p=0.151) was 35 (70.0%), the “Complete ASNHL-Related Tinnitus Remission … (%)” value ([2]; AM-111 0.4 mg/mL, Mild to Moderate hearing loss subgroup N = 25 (21 subjects), placebo 78.6%, p=0.732) was 21 (84.0%) and the “Number of Subjects with Tinnitus/Number … (%)” value ([2]; AM-111 2.0 mg/mL single i.t. injection, Day 0, after study drug, 58/59 subjects) was 58/59 (98.3) %. For the same substance, the “Number of Subjects with Tinnitus/Number … (%)” value ([2]; AM-111 2.0 mg/mL single i.t. injection, Day 3, 59/59 subjects) was 59/59 (100) %, the “Number of Subjects with Tinnitus/Number … (%)” value ([2]; AM-111 2.0 mg/mL single i.t. injection, Day 7, 51/58 subjects) was 51/58 (87.9) % and the “Number of Subjects with Tinnitus/Number … (%)” value ([2]; AM-111 2.0 mg/mL single i.t. injection, Day 30, 35/56 subjects) was 35/56 (62.5) %. For the same substance, the “Number of Subjects with Tinnitus/Number … (%)” value ([2]; AM-111 2.0 mg/mL single i.t. injection, Day 90, 28/54 subjects, placebo 56.0%) was 51.9% and 28/54 (51.9) %, the “Complete ASNHL-Related Tinnitus Remission … (%)” value ([2]; AM-111 2.0 mg/mL, All Subjects N = 56 (31 subjects), placebo 54.9%, p=1.000) was 31 (55.4%) and the “Complete ASNHL-Related Tinnitus Remission … (%)” value ([2]; AM-111 2.0 mg/mL, Mild to Moderate hearing loss subgroup N = 27 (17 subjects), placebo 78.6%, p=0.245) was 17 (63.0%). The “Number of Subjects with Tinnitus/Number … (%)” value ([2]; AM-111 Total (0.4 and 2.0 mg/mL groups), Day 0, after study drug, 111/115 subjects) was 111/115 (96.5) %, the “Number of Subjects with Tinnitus/Number … (%)” value ([2]; AM-111 Total (0.4 and 2.0 mg/mL groups), Day 3, 110/115 subjects) was 110/115 (95.7) % and the “Number of Subjects with Tinnitus/Number … (%)” value ([2]; AM-111 Total (0.4 and 2.0 mg/mL groups), Day 7, 93/113 subjects) was 93/113 (82.3) %. The “Number of Subjects with Tinnitus/Number … (%)” value ([2]; AM-111 Total (0.4 and 2.0 mg/mL groups), Day 30, 61/111 subjects) was 61/111 (55.0) %, the “Number of Subjects with Tinnitus/Number … (%)” value ([2]; AM-111 Total (0.4 and 2.0 mg/mL groups), Day 90, 47/104 subjects) was 47/104 (45.2) % and the “Complete tinnitus remission, AM-111 treatment groups versus placebo” value ([2]; subgroup mild to moderate hearing loss, Fisher's Exact Test) was “no statistically significant differences”.
For “Ac-YGRKKRRQRRR-gaba-ILKQSMTLNLADPVGSLKPHLRAKN-NH2 (YGRKKRRQRRRXILKQSMTLNLADPVGSLKPHLRAKN; N-acetyl; GABA spacer; C-terminal amide) [SEQ ID NO: 45, cell-permeable 37-mer peptide of human c-Jun delta domain and HIV-TAT protein transduction domain fused by a GABA spacer]”, the “Disruption of c-Jun/JNK complex formation and subsequent phosphorylation and activation of c-Jun by JNK” value [3] is given as “specifically disrupt c-Jun/JNK complex formation”.
